Here are results for twelve compounds from patent US5504098A, “Benzothiazolesulfonamide derivative, method for preparing the same, and use thereof” (Asahi Kasei Kogyo Kabushiki Kaisha, priority 1993, dated 1996).

Molecules are shown by their SMILES. Counter-ions that a name gives are not always drawn.

For test [1], the target named is protein kinase C (PKC). Kind of test: Measurement of the activity to inhibit protein kinase C (PKC). The format is biochemical, rat. The conditions noted are these: for Ki: ATP 1, 3, 5 and 10 μM, double reciprocal plotting, PKC from rat brain, read-out: PKC inhibiting activity in terms of Ki value. The protocol:
Each of compounds 1 to 10 was used as an inhibitor for PKC. As a comparative compound, 1- 2-(6-benzothiazolesulfonylamino)ethyl!-4- 3-(phenoxy)propyl!piperazine dihydrochloride disclosed in International Patent Application Publication No. W092/14712 was used. Measurement of a PKC inhibiting activity of each of compounds 1 to 10 was conducted utilizing a kit for measuring PKC inhibiting activity (manufactured and sold by Medical and Biological Laboratories, Japan). PKC was isolated from a rat brain and purified by the method according to Inagaki et al. (Journal of Biochemistry, vol. 260, p.2922-2925, 1985). On the surface of each well of the 96-well plate of the measuring kit, a peptide which is a substrate for PKC was immobilized. To each of the wells was added a solution containing 25 mM Tris buffer (pH 7.5), 3 mM magnesium chloride, 1 mM calcium chloride, 0.1% 2-mercaptoethanol, 1 mg/ml bovine serum albumin, 50 μg/ml phosphatidylserine, 10 μg/ml PKC and 1 μM of ATP, thereby initiating the reaction. Substantially the same reaction as mentioned above was repeated three more times, except that the ATP concentration was changed to 3, 5 and 10 μM. 3 Minutes after the initiation of each of the reactions, 100 μl of an aqueous 20% phosphoric acid solution was added to each well of the individual plates to terminate the reaction. Each well was washed with TrPBS three times. 100 μl of the primary antibody included in the kit, which had been diluted 10-fold with TwPBS, was added to each of the washed wells, and allowed to stand at room temperature for 1 hour. Each well was washed with TrPBS three times. Then, as a secondary antibody, 100 μl of peroxydase-labeled anti-mouse IgG antibody (manufactured and sold by Bio-Rad laboratories, U.S.A.) which had been diluted 1000-fold with TwPBS was added to each well, and allowed to stand at room temperature for 1 hour. Each well was washed with TrPBS three times. To each well was added 100 μl of a coloring agent containing 2 mg/ml orthophenylenediamine and an aqueous 0.04% hydrogen peroxide solution. When the coloring proceeded satisfactorily, 30 μl of 4.5M sulfuric acid was added to each well to terminate the reaction. The absorbance of the reaction mixture in each well was determined using a microplate reader (manufactured and sold by Bio-Rad laboratories, u.s.a.). In order to measure the PKC inhibiting activity of each of compounds 1 to 10 and the comparative compound, each of the compounds having an appropriate concentration was individually added to the above-mentioned respective solutions having ATP concentrations of 1, 3, 5 and 10 μM and, then, the PKC activity was individually measured in terms of the absorbance in substantially the same manner as mentioned above. The PKC inhibiting activity in terms of inhibition constant (Ki) was individually obtained by double reciprocal plotting of the respective PKC activities obtained in the presence of each of compounds 1 to 10 and the comparative compound, and the respective PKC activities obtained in the absence of compounds 1 to 10 and the comparative compound.

For test [2], the target named is T1, Myosin light chain kinase (MLCK) (Gallus gallus, UniProt P11799).
T1 construct: MLCK was isolated and purified by the method according to Walsh et al; from tissue
T1 sequence (P11799 935-1906): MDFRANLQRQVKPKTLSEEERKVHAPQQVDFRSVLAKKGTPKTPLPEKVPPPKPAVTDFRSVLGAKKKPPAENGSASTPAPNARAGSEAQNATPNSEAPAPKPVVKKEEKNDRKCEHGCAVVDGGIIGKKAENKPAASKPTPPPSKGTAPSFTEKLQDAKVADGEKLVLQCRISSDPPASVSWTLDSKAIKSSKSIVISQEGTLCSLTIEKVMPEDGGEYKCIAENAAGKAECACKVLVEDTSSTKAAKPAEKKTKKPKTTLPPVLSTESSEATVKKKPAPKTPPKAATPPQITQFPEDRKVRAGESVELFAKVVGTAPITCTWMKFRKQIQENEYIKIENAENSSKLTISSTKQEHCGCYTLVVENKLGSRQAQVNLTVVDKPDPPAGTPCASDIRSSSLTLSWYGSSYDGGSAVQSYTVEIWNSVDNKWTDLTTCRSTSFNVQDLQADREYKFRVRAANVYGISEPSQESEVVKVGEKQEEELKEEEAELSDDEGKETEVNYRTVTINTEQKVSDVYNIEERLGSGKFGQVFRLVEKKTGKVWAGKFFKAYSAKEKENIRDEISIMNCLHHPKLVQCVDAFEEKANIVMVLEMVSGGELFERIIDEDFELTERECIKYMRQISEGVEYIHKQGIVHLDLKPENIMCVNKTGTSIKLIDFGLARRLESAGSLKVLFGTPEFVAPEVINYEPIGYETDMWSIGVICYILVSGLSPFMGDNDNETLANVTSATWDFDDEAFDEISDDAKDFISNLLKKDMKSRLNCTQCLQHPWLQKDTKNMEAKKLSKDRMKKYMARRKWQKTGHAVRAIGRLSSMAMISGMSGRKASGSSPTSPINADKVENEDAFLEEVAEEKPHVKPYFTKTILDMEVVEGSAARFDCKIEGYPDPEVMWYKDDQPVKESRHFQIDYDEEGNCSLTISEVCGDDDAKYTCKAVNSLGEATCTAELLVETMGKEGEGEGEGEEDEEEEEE
The test can be described thus: Measurement of the activity to inhibit Myosin light chain kinase (MLCK). It counts as biochemical. The conditions noted are these: for Ki: ATP 20, 30, 50 and 100 μM, double reciprocal plotting, substrate MLC from chicken gizzard, read-out: MLCK inhibiting activity in terms of Ki value. The protocol: Each of compounds 1 to 10 was used as an inhibitor for MLCK. As a comparative compound, 1- 2-(6-benzothiazolesulfonylamino)ethyl!-4- 3-(phenoxy)propyl!piperazine dihydrochloride disclosed in International Patent Application Publication No. WO92/14712 was used. Measurement of an MLCK inhibiting activity of each of compounds 1 to 10 was conducted utilizing the reaction system of MLCK and an antibody specific for phosphorylated myosine light chain (MLCP). MLC was isolated from a chicken gizzard and purified by the method according to Perry et al. (Journal of Biochemistry, vol. 211, p.267-272, 1983), to thereby obtain 20 kDa of purified MLC. On the other hand, MLCK was isolated and purified by the method according to Walsh et al. (Methods in Enzymology, vol. 99, p.279-288, 1983). Calmodulin was isolated from a pig brain and purified by the method according to Yazawa (Journal of Biochemistry, vol. 87, p.1313-1320, 1980). Further, anti-MLCP antibody was prepared by using, as an antigen, a synthetic peptide which has an amino acid sequence of an MLCP amino acid fragment of 12 amino acid residues containing a serine residue (phosphorylation site of MLCP). […] The synthetic peptide was subjected to phosphorylation by MLCK in the presence of ATP, followed by purification by high performance liquid chromatography. The purified peptide was conjugated with key hole limpet hemocyanin (KLH). The conjugation efficiency thereof was 110-148 nmol peptide/mg KLH. 0.2 mg of the KLH-conjugated peptide was mixed with an adjuvant and injected to a rabbit. The injection was conducted four more times, to thereby immunize the […]. An anti-MLCP antibody was obtained from the […], and the antibody titer thereof was examined. With respect to the anti-MLCP antibody having a satisfactorily high antibody titer, an IgG fraction (anti-MLCP IgG) was obtained and purified. Measurement of the MLCK activity was conducted as follows. MLC was diluted with a phosphate buffer (PBS) to obtain a solution having a MLC concentration of 5 μg/ml. 100 μl of the solution was added to each well of 96-well immunoplate, and was allowed to stand overnight at 4° C., to thereby immobilize the MLC on the surface of each well. Each plate was washed with PBS to thereby remove the MLC which had not been immobilized. To each of the MLC-immobilized wells was added a solution containing 25 mM Tris buffer (pH 7.5), 3 mM magnesium chloride, 1 mM calcium chloride, 0.1% of 2-mercaptoethanol, 1 mg/ml bovine serum albumin, 20 μg/ml calmoduline, 0.1 μg/ml MLCK, and 20 μM of ATP, thereby initiating the reaction. Substantially the same reaction as mentioned above was repeated three more times, except that the ATP concentration was changed to 30, 50 and 100 μM. 3 Minutes after the initiation of each of the reactions, 100 μl of an aqueous 20% phosphoric acid solution was added to each well of the individual plates to terminate the reaction. Each well was washed three times with PBS containing 0.2% of Triton X-100 (TrPBS). As a primary antibody, 100 μl of anti-MLCP antibody which had been diluted 500-fold with PBS containing 0.05% Tween 20 (TwPBS) was added to each of the washed wells, and allowed to stand at room temperature for 1 hour. Each well was washed with TrPBS three times. Then, as a secondary antibody, 100 μl of peroxydase-labeled anti-rabit IgG antibody (manufactured and sold by Cappel Co., Ltd., Germany) which had been diluted 1000-fold with TwPBS was added to each well, and allowed to stand at room temperature for 1 hour. Each well was washed with TrPBS three times. To each well was added 100 μ l of a coloring agent containing 2 mg/ml orthophenylenediamine and an aqueous 0.04% hydrogen peroxide solution. When the coloring proceeded satisfactorily, 30 μl of 4.5M sulfuric acid was added to each well to terminate the reaction. The absorbance of the reaction mixture in each well was determined using a microplate reader (manufactured and sold by Bio-Rad laboratories, U.S.A.). […]

Test [3] has as its system tracheal specimens excised from guinea pigs (bronchial smooth muscle). Kind of test: Inhibitory effect on KCl-induced contraction of tracheal specimens excised from guinea pigs. The conditions noted are these: for Emax: Cavia porcellus, 20 mM KCl-induced contraction, maximum relaxation with 100 μM papaverine = 100%, 37 °C, 3 specimens, cumulative addition, read-out: Bronchial smooth muscle-relaxation ratio. On the set-up: species or system guinea pig. The source says: According to a method in which tracheal specimens excised from guinea pigs were used (Takagi and Ozawa, "Yakubutsugaku Jikken (Experiments in Pharmacology)", p.100-102, 1960, published by Nanzando, Japan; and Fujiwara and Shibata, "Yakurigaku Kiso Jikenho (Methods of Fundamental Experiments in Pharmacology)" p.131-134, 1982, published by Kyourin, Japan), the relaxing effect of benzothiazolesulfonamide derivatives of the present invention (compounds 1 to 10) on bronchial smooth muscle was evaluated. From male guinea pigs weighing 350 to 500 g (Hartley strain, Kuroda Junkei Dobutsu), tracheas were excised and each of the excised tracheal specimens was hung in a 20 ml Magnus tube filled with Krebs-Henseleit solution containing 3 μM indomethacin under isometric conditions (initial load: 1.5 g). The solution temperature was kept at 37 ° C. in an atmosphere containing 95% O2 and 5% CO2. […] On the other hand, each of the compounds of the present invention was dissolved in distilled water or physiological saline and, after the KCl-induced contraction became stable, the compound solution was cumulatively added into the Magnus tube. The relaxing effect of each of the compounds of the present invention on contracted tracheal specimens was evaluated and a dose-response curve was obtained. After the evaluation of the relaxing effect, 100 μM of papaverine was individually added into the Magnus tubes, to thereby obtain a maximum relaxation value. Taking the obtained maximum relaxation value as 100%, the relaxation ratio was calculated with respect to each of thee compounds of the present invention. The number of specimens tested for each compound was 3. As a comparative compound, 1- 2-(6-benzothiazolesulfonylamino)ethyl!-4- 3-(phenoxy)propyl!piperazine […] disclosed in International Patent Application Publication No. WO92/14712 was used. (2) Results of the calculations

The subject of test [4] is bronchial smooth muscle. The conditions noted are these: disclosed in WO92/14712; cited from earlier work.

As a reminder, the Ki is the dissociation constant of the complex between target and ligand, obtained from inhibition or displacement.

Regarding `O=S(=O)(c1cccc2ncsc12)N1CCNCC1` [Compound 2, 1-(7-benzothiazolesulfonyl)piperazine hydrochloride], the Ki in test [1] worked out at 5 µM; in test [2], 50 µM. In test [3], the Emax was 24%.

As for `O=S(=O)(NCCN1CCN(CCCOc2ccccc2)CC1)c1ccc2ncsc2c1` [Comparative compound, 1-2-(6-benzothiazolesulfonylamino)ethyl!-4-3-(phenoxy)propyl!piperazine dihydrochloride, reference compound], the Ki in test [1] and in test [2] was > 200 µM in each case. Moreover, in test [1] (conclusion from Table 1), the “activity to inhibit protein kinase C (in words)” value is “no activity to inhibit the protein kinases”. Moreover, the “activity to inhibit myosin light chain kinase (in words)” value in test [2] (conclusion from Table 1) is given as “no activity to inhibit the protein kinases”. For the same compound, the Emax in test [3] was 6.8%. In test [3] (KCl-induced contraction, conclusion from Table 2), the “ability to relax a bronchial smooth muscle of a tracheal specimen (in words)” value was “no ability to relax such a bronchial smooth muscle”.

In the case of `CC(NCCNS(=O)(=O)c1cccc2ncsc12)c1cccc(Cl)c1` (stereo not shown) [Compound 9, N-{2-1-(3-chlorophenyl)ethyl!aminoethyl}-7-benzothiazolesulfonamide hydrochloride], the Ki in test [1] was determined as 25 µM; in test [2] it was 90 µM. Besides, the Emax in test [3] is 74.6%.

As for `NCCNS(=O)(=O)c1cccc2ncsc12` [Compound 4, 1-(7-benzothiazolesulfonyl)ethylenediamine hydrochloride], the Ki was 5 µM in test [1] and 75 µM in test [2]. Moreover, the Emax in test [3] was found to be 33%.

Take `O=S(=O)(NCCNCc1cccc(F)c1)c1cccc2ncsc12` [Compound 10, N-2-(3-fluorobenzylamino)ethyl!-7-benzothiazolesulfonamide hydrochloride]: the Ki stood at 7 µM in test [1] and 55 µM in test [2]. For the same compound, in test [3], the Emax stood at 78%.

With `O=S(=O)(c1ccc2ncsc2c1)N1CCNCC1` [Compound 6, 1-(6-benzothiazolesulfonyl)piperazine hydrochloride], the Ki in test [1] was 15 µM; in test [2], 25 µM. The Emax in test [3] is 27.2%.

`O=S(=O)(NCCN1CCN(CCCOc2ccccc2)CC1)c1ccc2ncsc2c1` [1-2-(6-benzothiazolesulfonylamino)ethyl!-4-3-(phenoxy)propyl!piperazine]: in test [4], the “ability to relax a bronchial smooth muscle by its antihistaminic activity” value is given as “has the ability to relax a bronchial smooth muscle by its antihistaminic activity”.

As for `CC1CNCCN1S(=O)(=O)c1cccc2ncsc12` (stereo not shown) [Compound 3, 1-(7-benzothiazolesulfonyl)-2-methylpiperazine hydrochloride], the values for the inhibition constant (Ki) in test [1] and in test [2] were 15 µM and 90 µM, respectively. Besides, the Emax in test [3] was 21.1%.

For `CNCCNS(=O)(=O)c1cccc2ncsc12` [Compound 5, 1-(7-benzothiazolesulfonyl)-4-methylethylenediamine hydrochloride], the Ki came to 35 µM in test [1] and 120 µM in test [2]. The Emax in test [3] worked out at 22%.

For the compound `O=S(=O)(NCCNCc1ccc2c(c1)OCO2)c1cccc2ncsc12` [Compound 7, N-2-(3,4-methylenedioxybenzylamino)ethyl!-7-benzothiazolesulfonamide hydrochloride], the Ki stood at 6 µM in test [1] and 50 µM in test [2]. In addition, the Emax in test [3] was determined as 96.8%.

On to `O=S(=O)(c1cccc2ncsc12)N1CCCNCC1` [Compound 1, 1-(7-benzothiazolesulfonyl)homopiperazine hydrochloride], for which the Ki in test [1] worked out at 7 µM; in test [2], 80 µM. In addition, the Emax in test [3] was 30.5%.

For the compound `O=S(=O)(NCCNCc1cccc(Cl)c1)c1cccc2ncsc12` [Compound 8, N-2-(3-chlorobenzylamino)ethyl!-7-benzothiazolesulfonamide hydrochloride], the figures for the Ki in test [1] and in test [2] were 5 µM and 55 µM, respectively. The Emax in test [3] turned out to be 85.7%.
